{
  "source": "patent US11673853B2",
  "about": "“Small molecule AMPK activators” (University of Pittsburgh—Of the Commonwealth System of …, priority 2016, dated 2023)",
  "test_system": "Diet-induced obese mice",
  "assay": "Diet-induced obese mice study, 14 days dosing",
  "format": "in vivo",
  "details": "once daily for 14 days; BC1618 8 or 40 mg/kg/d",
  "description": "FIG. 12. Diet-induced obese mice were fed a high-fat diet for 19 weeks and then injected with vehicle or drug once daily for 14 days. Daily body weights (in grams) of the mice are shown.\nDiet-induced obese mice arrived from Jackson Labs and recovered two weeks in satellite housing before study. Mice were 25 weeks old and fed a high-fat diet for 19 weeks at the time of study. Body weight, fat and lean mass were measured and mice were grouped in order to match body weights at ˜46.5 g average per group prior to study. Following the acute dosing trial, mice were injected with vehicle or drug 1× daily between noon and 2 pm for 14 days (BC1618-L (low dose)=8 mg/kg/d, BC1618-H (high dose)=40 mg/kg/d). Body weight was recorded daily (FIGS. 12-15). FIG. 12 and FIG. 13 show body weight in grams and FIG. 14 and FIG. 15 show body weight as a percentage of body weight on day 0 (DO).\nFIGS. 16-19 show the change (A) in body weight (BW) from day 0 to day 14 expressed as change in grams (FIG. 16 and FIG. 17) or as percent change from day 0 (FIG. 18 and FIG. 19).\nBody composition was measured at DO in the body weight matched animals and again at day 14 (D14). Data in FIGS. 20-23 represent the change in fat mass from DO to D14 expressed as grams (FIG. 20 and FIG. 21) or as percent change (FIG. 22 and FIG. 23).\nData in FIGS. 24-27 represent the change in lean mass from DO to D14 expressed as grams (FIG. 24 and FIG. 25) and as percent change (FIG. 26 and FIG. 27). Overall there appears to be a modest effect of vehicle and drug to reduce lean mass over 14 days, but no differences between groups. Changes in BW over 14 days therefore reflect changes in fat mass and not lean mass.",
  "data": [
    {"smiles": "OC(COc1ccc(C(F)(F)F)cc1)CN(Cc1ccccc1)Cc1ccccc1", "note": "(stereo not drawn) [Compound 23]", "values": [
      {"measurement": "body weight loss (daily body weight)", "result": "effect of AICAR and BC1618 on body weight loss"},
      {"measurement": "change in body weight from day 0 to day 14", "result": "an effect due to AICAR or BC1618"},
      {"measurement": "change in fat mass from D0 to D14", "result": "apparent additive effect"}
    ]}
  ]
}
